Results on 2 compounds are retold here after publication PMC7482066, “Unstable Mechanisms of Resistance to Inhibitors of Escherichia coli Lipoprotein Signal Peptidase” (mBio, 2020).

One experiment has as its system E. coli MG1655 ΔtolC. Description: MIC. In kind it is cell-based. To be noted: E. coli MG1655 WT vs MG1655 ΔtolC. On the procedure:
MICs of compounds in each strain were determined in cation-adjusted Mueller-Hinton II (MHII) broth or MHII agar according to the Clinical and Laboratory Standards Institute protocol (CLSI 2006). To measure the effect of protein binding on activity, MIC assays were performed in the presence of 50% heat-inactivated human serum. The serum killing assay was performed as described previously ([43]). FOR assays and growth on plates containing G0790 were always performed on MHII agarose plates.

In the next experiment the test system is E. coli CFT073 imp4213. Description: Frequency of resistance (FOR). In kind it is cell-based. To be noted: 4× MIC, MHII agarose. On the procedure: Frequencies of resistance (FORs) of G0790 were determined for E. coli CFT073, E. cloacae (ATCC 13047), and K. pneumoniae (ATCC 700603) as previously published ([70]). To determine the FOR, 3 to 4 colonies of the strain to be tested were picked from a fresh plate and diluted to an optical density at 600 nm (OD600) of 0.00001 in 1 ml of cation-adjusted MHBII. Ten independent 5-ml cultures in MHBII were prepared by inoculating 5 μl (approximately 1 × 10^3 CFU) and incubated at 37°C for 18 h. The bacteria were pelleted by centrifugation at 4000 × g at 4°C for 15 min and resuspended in 0.5 ml fresh MHBII. Two hundred fifty microliters of the bacterial suspension was plated evenly on MHII agarose plates containing globomycin or G0790 at a final concentration of 4× and 8× MIC. In parallel, CFU from each independent culture was measured by spotting 10-fold serial dilutions on MHII agar plates and incubated at 37°C for 18 h. Colonies were counted at days 1, 2, and 3 postinoculation. FOR was calculated as the ratio of the total number of resistant colonies relative to the total CFU plated. For strains that had no resistant colonies growing on plates, the p0 method was used to calculate the FOR (FOR = m/total CFU plated, where m = −ln p0 and p0 is the proportion of cultures with no mutants; 0.7 ≥ p0 ≥ 0.1), as described previously ([71]). Colonies were picked and resuspended in 30 μl MHBII broth medium, and 10 μl was plated on an MHII agar plate containing G0790 to be used to determine the MIC. Of the remaining 20 μl, half was used to inoculate 1.5 ml MHBII broth medium containing G0790 and grown at 37°C for 18 h to generate cell lysates for Western blot analysis, isolate genomic DNA (gDNA) for whole-genome sequencing, and for frozen glycerol stocks.

The next experiment has as its system E. coli CFT073. In words: Bactericidal activity, CFU over time. To be noted: G0790 at 2× MIC, two independent experiments in duplicates. In kind it is cell-based.
The next experiment has as its system Lpp. To be noted: in words; cited from earlier work. From the text:
We confirmed that the increase in potency against WT bacterial strains was specific to LspA by using multiple parallel approaches. […] Third, like GBM, G0790 is bactericidal, a ...

Another experiment relates to LspA. To be noted: cited from earlier work; for LspA inhibition, mode: in words. From the text: Bacterial lipoprotein biosynthesis is an attractive target for novel antibiotic drug discovery, as bacterial lipoproteins play critical roles in adhesion, nutrient uptake, antibiotic resistance, virulence, invasion, and immune evasion ([14]). Lipoprotein biosynthesis in Gram-negative bacteria is mediated by three essential inner membrane-localized enzymes ([14]), which work sequentially to generate the mature triacylated lipoproteins. The second enzyme in the pathway, prolipoprotein signal peptidase (LspA), is an aspartyl endopeptidase which cleaves off the signal peptide N-terminal to a conse ... || Our efforts to identify potent GBM analogs were driven by whole bacterial cell activity assays due to the low translatability of in vitro biochemical activity ([34], [35]).

Experiment [1] has as its system wild-type (WT) Gram-negative bacteria. To be noted: in words; cited from earlier work. The text has this: Therefore, with the goal of increasing GBM whole-cell potency through medicinal chemistry optimization, we identified G0790 as an analog with increased growth inhibitory activity against multiple Gram-negative bacterial species ([36]). G0790 contains (S)-2,3-diaminopropionic acid (Dap), cyclohexylglycine (Chg), and N-methyl ...

Experiment [2] deals with lspA-overexpressing or lpp-deleted bacteria. To be noted: in words, cited from earlier work.

`CCCCCC[C@H]1OC(=O)CNC(=O)[C@H]([C@H](C)O)NC(=O)[C@H](CO)NC(=O)[C@H]([C@H](C)CC)NC(=O)[C@H](CC(C)C)N(C)C(=O)[C@@H]1C` [GBM, globomycin]: the “WT/tolC MIC shift” value with E. coli MG1655 ΔtolC is reported as ~128 fold. Moreover, the “FOR (frequency of resistance)” value in the experiment on E. coli CFT073 imp4213 is recorded as 1.4 × 10^−9. The Bactericidal activity entry in the experiment on E. coli CFT073 is “bactericidal”. In addition, the “Accumulation of peptidoglycan-associated Lpp in the inner membrane” value in the experiment with Lpp was “accumulation of the peptidoglycan-associated form of Lpp in the inner membrane”. Also, the “LspA inhibition, mode” value with LspA is reported as “inhibit LspA function by targeting the catalytic dyad aspartic acid residues”. In addition, the Ki at LspA (previously described by Dev et al.) was 36 nM. For the same compound, in experiment [1], the “Growth inhibition of WT Gram-negative bacteria” value was “weak growth inhibition”. Further, in experiment [2], the “Effect of plasmid-based lspA overexpression” value was “confer resistance”. In experiment [2] (previous finding, ref as printed: none in abstract), the “Effect of complete Lpp deletion” value is on record as “leads to globomycin resistance”.

Turning to `CCCC1OC(=O)C(C)CC(C)CCCCC(=O)CCCC(CC)/C=C/C=C(\COC)CCC(O)C(O)CC(O)CNC1=O` (centres unmarked) [myxovirescin], in the experiment on LspA, the “LspA inhibition, mode” value is “inhibit LspA function by targeting the catalytic dyad aspartic acid residues”. Moreover, the “Effect of plasmid-based lspA overexpression” value in experiment [2] was “confer resistance”.

The Ki is the equilibrium dissociation constant of an inhibitor or competing ligand from its target.
